ChEMBL document CHEMBL1149962, “Structural and stereochemical requirements of time-dependent inactivators of the interleukin-1 converting enzyme” (Bioorg Med Chem Lett, 1995)
pKi: −log10 of the molar value.

Legend:
Caspase-1 (Homo sapiens) [1] = biological target: T1, Caspase-1 (Homo sapiens) (UniProt P29466); test: Inhibition of IL-1 beta converting enzyme
T1 sequence (whole entry): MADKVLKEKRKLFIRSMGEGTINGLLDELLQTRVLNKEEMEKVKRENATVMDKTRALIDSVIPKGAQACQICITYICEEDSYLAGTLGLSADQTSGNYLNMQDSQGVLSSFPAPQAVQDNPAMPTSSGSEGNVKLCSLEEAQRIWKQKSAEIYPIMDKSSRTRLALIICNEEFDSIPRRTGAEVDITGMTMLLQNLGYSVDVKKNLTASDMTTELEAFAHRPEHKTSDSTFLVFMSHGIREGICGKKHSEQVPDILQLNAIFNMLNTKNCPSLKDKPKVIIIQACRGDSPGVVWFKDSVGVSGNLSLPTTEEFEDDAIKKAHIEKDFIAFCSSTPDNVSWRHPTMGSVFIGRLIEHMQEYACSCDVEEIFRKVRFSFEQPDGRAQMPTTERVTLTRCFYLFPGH

Caspase-1 (Homo sapiens) [2] = biological target: T1, Caspase-1 (Homo sapiens); test: k obs/[I] against Interleukin-1-beta Converting enzyme (ICE) was determined.
Caspase-1 = biological target: T2, Caspase-1 (Homo sapiens, UniProt P29466); test: Binding affinity against IL-1 beta converting enzyme
T2 sequence (P29466 whole entry): T1 sequence (whole entry)

Compound | k obs / 1 (Caspase-1 (Homo sapiens) [1]) | further results
COC(=O)N[C@@H](Cc1cccs1)C(=O)N[C@@H](CC(=O)O)C(=O)COC(=O)c1c(Cl)cccc1Cl | 2500 M⁻¹ s⁻¹ | –
CC(C)[C@H](NC(=O)OCc1ccccc1)C(=O)N[C@@H](CC(=O)O)C(=O)COC(=O)c1c(Cl)cccc1Cl | 41000 M⁻¹ s⁻¹ | –
O=C(O)C[C@H](OC(=O)OCc1ccccc1)C(=O)COC(=O)c1c(Cl)cccc1Cl | < 1000 M⁻¹ s⁻¹ | –
O=C(O)C[C@H](NC(=O)OCc1ccccc1)C(=O)COc1c(Cl)cccc1Cl | < 1000 M⁻¹ s⁻¹ | –
O=C(O)CC[C@H](NC(=O)OCc1ccccc1)C(=O)COC(=O)c1c(Cl)cccc1Cl | – | k obs / 1 (Caspase-1 (Homo sapiens) [2]): < 1000 M⁻¹ s⁻¹
CN(C(=O)OCc1ccccc1)[C@@H](CC(=O)O)C(=O)COC(=O)c1c(Cl)cccc1Cl | < 1000 M⁻¹ s⁻¹ | –
C[C@H](C(=O)O)[C@H](NC(=O)OCc1ccccc1)C(=O)COC(=O)c1c(Cl)cccc1Cl | < 1000 M⁻¹ s⁻¹ | –
O=C(O)C[C@@H](CC(=O)COC(=O)c1c(Cl)cccc1Cl)NC(=O)OCc1ccccc1 | < 1000 M⁻¹ s⁻¹ | –
CC(C)[C@H](NC(=O)OCc1ccccc1)C(=O)N[C@@H](C)C(=O)N[C@@H](C=O)CC(=O)O | – | pKi (Caspase-1): 7.82
CC(C)[C@H](NC(=O)OCc1ccccc1)C(=O)N[C@@H](C)C(=O)N[C@H](C=O)CC(=O)O | – | pKi (Caspase-1): 7.82
C[C@@H](NC(=O)OCc1ccccc1)C(=O)N[C@@H](CC(=O)O)C(=O)COC(=O)c1c(Cl)cccc1Cl | < 1000 M⁻¹ s⁻¹ | –
COC(=O)N[C@@H](C)C(=O)N[C@@H](CC(=O)O)C(=O)COC(=O)c1c(Cl)cccc1Cl | 7000 M⁻¹ s⁻¹ | –
COC(=O)N[C@@H](Cc1c[nH]cn1)C(=O)N[C@@H](CC(=O)O)C(=O)COC(=O)c1c(Cl)cccc1Cl | 2200 M⁻¹ s⁻¹ | –
O=C(O)CCC[C@H](NC(=O)OCc1ccccc1)C(=O)COC(=O)c1c(Cl)cccc1Cl | < 1000 M⁻¹ s⁻¹ | –
O=C(O)C[C@@H](CCOC(=O)c1c(Cl)cccc1Cl)NC(=O)OCc1ccccc1 | < 1000 M⁻¹ s⁻¹ | –

Continued, in another order:

k obs / 1 (Caspase-1 (Homo sapiens) [1]) | Compound | further results
7400 M⁻¹ s⁻¹ | O=C(O)C[C@H](NC(=O)OCc1ccccc1)C(=O)COC(=O)c1c(Cl)cccc1Cl | –
116000 M⁻¹ s⁻¹ | C[C@H](NC(=O)OCc1ccccc1)C(=O)N[C@@H](C)C(=O)N[C@@H](CC(=O)O)C(=O)COC(=O)c1c(Cl)cccc1Cl | –
< 1000 M⁻¹ s⁻¹ | O=C(O)C[C@H](NC(=O)OCc1ccccc1)C(=O)CSc1c(Cl)cccc1Cl | –
233000 M⁻¹ s⁻¹ | C[C@H](NC(=O)[C@H](Cc1ccccc1)NC(=O)OCc1ccccc1)C(=O)N[C@@H](CC(=O)O)C(=O)COC(=O)c1c(Cl)cccc1Cl | –
< 1000 M⁻¹ s⁻¹ | O=C(N[C@@H](Cc1nnn[nH]1)C(=O)COC(=O)c1c(Cl)cccc1Cl)OCc1ccccc1 | –
< 1000 M⁻¹ s⁻¹ | C[C@@H](C(=O)O)[C@H](NC(=O)OCc1ccccc1)C(=O)COC(=O)c1c(Cl)cccc1Cl | –
< 1000 M⁻¹ s⁻¹ | O=C(O)C[C@H](NC(=O)OCc1ccccc1)C(O)COC(=O)c1c(Cl)cccc1Cl (stereo partly specified) | –
< 1000 M⁻¹ s⁻¹ | O=C(O)C[C@@H](C(=O)COC(=O)c1c(Cl)cccc1Cl)C(=O)NCCc1ccccc1 | –
10000 M⁻¹ s⁻¹ | C[C@H](NC(=O)[C@@H](C)NC(=O)OCc1ccccc1)C(=O)N[C@@H](CC(=O)O)C(=O)COC(=O)c1c(Cl)cccc1Cl | –
4900 M⁻¹ s⁻¹ | COC(=O)N[C@H](C(=O)N[C@@H](CC(=O)O)C(=O)COC(=O)c1c(Cl)cccc1Cl)C(C)C | –
< 1000 M⁻¹ s⁻¹ | COC(=O)NCC(=O)N[C@@H](CC(=O)O)C(=O)COC(=O)c1c(Cl)cccc1Cl | –
